# Measurements published in patent US20240174637A1, “DEGRADERS OF GRK2 AND USES THEREOF” (Sonata Therapeutics, Inc., priority 2021, published 2024).
# Read-outs that look alike come from different tables or passages of the source.
# Tests used:
# [1] = molecular target: T1, GRK2 (Homo sapiens, UniProt P25098); test: GRK2 Inhibition Assay (TR-FRET, Example 1); assay type: biochemical
# T1 sequence (P25098 1-689): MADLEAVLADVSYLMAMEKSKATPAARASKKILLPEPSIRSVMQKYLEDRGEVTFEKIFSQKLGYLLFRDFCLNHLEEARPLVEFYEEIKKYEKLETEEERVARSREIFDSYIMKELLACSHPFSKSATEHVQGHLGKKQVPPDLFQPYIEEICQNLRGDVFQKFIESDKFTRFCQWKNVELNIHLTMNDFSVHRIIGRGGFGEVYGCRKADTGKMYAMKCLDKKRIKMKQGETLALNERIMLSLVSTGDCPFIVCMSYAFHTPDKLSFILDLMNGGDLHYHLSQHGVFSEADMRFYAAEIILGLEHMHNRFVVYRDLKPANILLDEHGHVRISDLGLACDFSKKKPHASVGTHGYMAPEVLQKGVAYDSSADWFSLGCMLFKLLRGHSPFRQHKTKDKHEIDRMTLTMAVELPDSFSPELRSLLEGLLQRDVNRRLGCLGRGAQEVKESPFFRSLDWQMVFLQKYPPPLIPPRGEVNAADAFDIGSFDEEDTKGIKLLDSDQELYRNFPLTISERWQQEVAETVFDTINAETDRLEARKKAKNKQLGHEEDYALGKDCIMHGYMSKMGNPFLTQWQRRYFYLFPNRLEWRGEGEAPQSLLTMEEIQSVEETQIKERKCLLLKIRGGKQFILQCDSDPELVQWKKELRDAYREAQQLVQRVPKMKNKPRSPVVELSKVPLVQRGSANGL
# Procedure, shortened: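 TR-FRET phosphorylation readout: Eu anti-TopoIIα antibody with EDTA added after a 90 min RT kinase reaction of 1 nM GRK2, 7 μM ATP and 50 nM ULight-TopoIIα. Compounds were pre-incubated with enzyme 30 min at room temperature beforehand.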
# [2] = tested on: PAXF1657 EV; test: 7-day cellular proliferation assay (CellTiter-Glo), PAXF1657 EV; assay type: cell-based
# Procedure, shortened: (§1)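 500 cells/well, RPMI1640 + 10% H.I. FBS, adhered overnight at 37° C. Compound 10-pt dilution, 30 μM-0.0002 μM final, 0.3% DMSO. 3 d, media + compound replaced, further 4 d. Viability by CellTiter-Glo; untreated plates read at time of dosing.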
# [3] = molecular target: T1, GRK2; test: GRK2 Degradation Assay and Western Blot in PAXF1657 cells; assay type: cell-based; set-up: endogenous in cells; host or cells: PAXF1657; details: for DC50: PAXF1657, 24 h, read-out: Degradation Assay - Full Dose Response: IC50 (uM) [cell line: PAXF1657, time point: 24 h]
# Procedure, shortened: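 GRK2 degradation judged by immunoblot: NP40 lysates separated by SDS-PAGE and probed for GRK2 and β-actin, with HRP/ECL detection. Lysates came from PAXF1657 cells exposed to 0–10 μM compound for 6–24 h after reaching 70% confluency.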
# [4] = tested on: PAXF1657 KO Clone #4; test: 7-day cellular proliferation assay (CellTiter-Glo), PAXF1657 KO Clone #4; assay type: cell-based
# Procedure, shortened: as §1
# [5] = Table 4, Example 1 assay, read-out: Enzymatic GRK2 IC50: Av IC50 GRK2
# [6] = proliferation, read-out: GeoMean IC50 (UM) PAXF1657 EV
# [7] = Conc 0.3 uM, read-out: Degradation Assay - 3 point: Degradation (%)
# [8] = Conc 1 uM, read-out: Degradation Assay - 3 point: Degradation (%)
# [9] = Conc 3 uM, read-out: Degradation Assay - 3 point: Degradation (%)
# [10] = proliferation, read-out: GeoMean IC50 (uM) PAXF1657 KO Clone #4
"IC50 [1, 5] [nM]","inhibition at 0.3 µM [3, 7] [%]","inhibition at 1 µM [3, 8] [%]","inhibition at 3 µM [3, 9] [%]",DC50 [3] [µM],"IC50 ([1]; TR-FRET, 7 μM ATP, read-out: Enzymatic GRK2 Assay: IC50 (nM) (Example 1))","% GRK2 degradation at 0.03 uM in PAXF1657 EV (24 hrs) ([3]; 0.03 uM, PAXF1657 EV, 24 hrs) [%]","% GRK2 degradation at 0.1 uM in PAXF1657 EV (24 hrs) ([3]; 0.1 uM, PAXF1657 EV, 24 hrs) [%]","inhibition at 0.3 µM ([3]; 0.3 uM, PAXF1657 EV, 24 hrs, read-out: % GRK2 degradation at 0.3 uM in PAXF1657 EV (24 hrs)) [%]","inhibition at 1 µM ([3]; 1 uM, PAXF1657 EV, 24 hrs, read-out: % GRK2 degradation at 1 uM in PAXF1657 EV (24 hrs)) [%]","inhibition at 3 µM ([3]; 3 uM, PAXF1657 EV, 24 hrs, read-out: % GRK2 degradation at 3 uM in PAXF1657 EV (24 hrs)) [%]","% GRK2 degradation at 10 uM in PAXF1657 EV (24 hrs) ([3]; 10 uM, PAXF1657 EV, 24 hrs) [%]","GRK2 degradation, dose dependence (FIGS. 1A-1D) ([3]; 24-hour treatment in PAXF1657 cells)",SMILES,"IC50 [2, 6] [µM]","IC50 [4, 10] [µM]","IC50 ([2]; 168 h, 7-day, read-out: 7-day proliferation assay: IC50 GeoMean (uM) [Cell Line: PAXF1657 EV]) [µM]","IC50 ([4]; 168 h, 7-day, read-out: 7-day proliferation assay: IC50 GeoMean (uM) [Cell Line: PAXF1657 KO Clone #4]) [µM]"
14.5,23.6,39.4,24,–,–,–,–,–,–,–,–,–,Cc1ncsc1-c1ccc([C@H](C)NC(=O)[C@@H]2C[C@@H](O)CN2C(=O)[C@@H](NC(=O)COCCCOCCCCCOc2cccc([C@@H](C)NC(=O)c3cccc(NCc4nnc(-c5ccncn5)n4C)c3)c2)C(C)(C)C)cc1 [Compound D169],0.12,8.15,–,–
16.7,82,86.5,94.6,–,–,–,–,–,–,–,–,–,"C[C@@H](NC(=O)c1cccc(NCc2nnc(-c3ccncn3)n2C)c1)c1cccc(OCCCCCOCCCOCC(=O)Nc2cccc3c2CN(C2CCC(=O)NC2=O)C3=O)c1 (stereo partly drawn) [Compound D183, N-((1R)-1-(3-((5-(3-(2-((2-(2,6-dioxopiperidin-3-yl)-1-oxoisoindolin-4-yl)amino)-2-oxoethoxy)propoxy)pentyl)oxy)phenyl)ethyl)-3-(((4-methyl-5-(pyrimidin-4-yl)-4H-1,2,4-triazol-3-yl)methyl)amino)benzamide]",0.11,> 30,–,–
20.9,88,92,93,0.12,–,–,–,–,–,–,–,–,"C[C@@H](NC(=O)c1cccc(NCc2nnc(-c3ccncn3)n2C)c1)c1cccc(OCCCCCCOCCOCCN2CCN(c3cc4c(cc3F)C(=O)N(C3CCC(=O)NC3=O)C4=O)CC2)c1 (stereo partly drawn) [Compound D140, N-((1R)-1-(3-(6-(2-(2-(4-(2-(2,6-dioxopiperidin-3-yl)-6-fluoro-1,3-dioxoisoindolin-5-yl)piperazin-1-yl)ethoxy)ethoxy)hexyloxy)phenyl)ethyl)-3-((4-methyl-5-(pyrimidin-4-yl)-4H-1,2,4-triazol-3-yl)methylamino)benzamide]",0.78,19.9,–,–
10.1,73.8,81.6,83.1,–,–,–,–,–,–,–,–,–,"C[C@@H](NC(=O)c1cccc(NCc2nnc(-c3ccncn3)n2C)c1)c1ccc(OCCCCCCOCCOCCOCCCCCC(=O)Nc2cccc3c2CN(C2CCC(=O)NC2=O)C3=O)cc1 (stereo partly drawn) [Compound D147, N-((1R)-1-(4-(6-(2-(2-(6-(2-(2,6-dioxopiperidin-3-yl)-1-oxoisoindolin-4-ylamino)-6-oxohexyloxy)ethoxy)ethoxy)hexyloxy)phenyl)ethyl)-3-((4-methyl-5-(pyrimidin-4-yl)-4H-1,2,4-triazol-3-yl)methylamino)benzamide]",0.11,> 30,–,–
–,–,–,–,–,< 100,38,60,74,87,90,83,Dose dependent,"CC(NC(=O)c1cccc(NCc2nnc(-c3ccncn3)n2C)c1)c1cccc(OCCCCCCOCCOCCOCCCCCC(=O)Nc2cccc3c2CN(C2CCC(=O)NC2=O)C3=O)c1 (stereo not drawn) [Compound D67, N-(1-(3-((6-(2-(2-((6-((2-(2,6-dioxopiperidin-3-yl)-1-oxoisoindolin-4-yl)amino)-6-oxohexyl)oxy)ethoxy)ethoxy)hexyl)oxy)phenyl)ethyl)-3-(((4-methyl-5-(pyrimidin-4-yl)-4H-1,2,4-triazol-3-yl)methyl)amino)benzamide]",–,–,1 to 10,> 10
26.6,17.5,68.7,89.2,0.24,–,–,–,–,–,–,–,–,"C[C@@H](NC(=O)c1cccc(NCc2nnc(-c3ccncn3)n2C)c1)c1cccc(OCCCCCCOCCOCCOCCC(=O)N2CCN(c3ccc4c(c3)CN(C3CCC(=O)NC3=O)C4=O)CC2)c1 (stereo partly drawn) [Compound D131, N-((1R)-1-(3-(6-(2-(2-(3-(4-(2-(2,6-dioxopiperidin-3-yl)-1-oxoisoindolin-5-yl)piperazin-1-yl)-3-oxopropoxy)ethoxy)ethoxy)hexyloxy)phenyl)ethyl)-3-((4-methyl-5-(pyrimidin-4-yl)-4H-1,2,4-triazol-3-yl)methylamino)benzamide]",0.22,> 30,–,–
9.55,90.8,94.8,89.6,–,–,–,–,–,–,–,–,–,C[C@@H](NC(=O)c1cccc(NCc2nnc(-c3ccncn3)n2C)c1)c1cccc(C(=O)N2CCC(CCN3CCN(c4ccc5c(c4)CN(C4CCC(=O)NC4=O)C5=O)CC3)CC2)c1 (stereo partly drawn) [Compound D120],0.04,> 30,–,–

SMILES,"IC50 [1, 5] [nM]","inhibition at 0.3 µM [3, 7] [%]","inhibition at 1 µM [3, 8] [%]","inhibition at 3 µM [3, 9] [%]",DC50 [3] [µM],"IC50 ([1]; TR-FRET, 7 μM ATP, read-out: Enzymatic GRK2 Assay: IC50 (nM) (Example 1))","% GRK2 degradation at 0.03 uM in PAXF1657 EV (24 hrs) ([3]; 0.03 uM, PAXF1657 EV, 24 hrs) [%]","% GRK2 degradation at 0.1 uM in PAXF1657 EV (24 hrs) ([3]; 0.1 uM, PAXF1657 EV, 24 hrs) [%]","inhibition at 0.3 µM ([3]; 0.3 uM, PAXF1657 EV, 24 hrs, read-out: % GRK2 degradation at 0.3 uM in PAXF1657 EV (24 hrs)) [%]","inhibition at 1 µM ([3]; 1 uM, PAXF1657 EV, 24 hrs, read-out: % GRK2 degradation at 1 uM in PAXF1657 EV (24 hrs)) [%]","inhibition at 3 µM ([3]; 3 uM, PAXF1657 EV, 24 hrs, read-out: % GRK2 degradation at 3 uM in PAXF1657 EV (24 hrs)) [%]","% GRK2 degradation at 10 uM in PAXF1657 EV (24 hrs) ([3]; 10 uM, PAXF1657 EV, 24 hrs) [%]","GRK2 degradation, dose dependence (FIGS. 1A-1D) ([3]; 24-hour treatment in PAXF1657 cells)","IC50 [2, 6] [µM]","IC50 [4, 10] [µM]","IC50 ([2]; 168 h, 7-day, read-out: 7-day proliferation assay: IC50 GeoMean (uM) [Cell Line: PAXF1657 EV]) [µM]","IC50 ([4]; 168 h, 7-day, read-out: 7-day proliferation assay: IC50 GeoMean (uM) [Cell Line: PAXF1657 KO Clone #4]) [µM]"
"C[C@H](NC(=O)c1cccc(NCc2nnc(-c3ccncn3)n2C)c1)c1cccc(OCCCCCCOCCOCCOCCCC(=O)Nc2cccc3c2CN(C2CCC(=O)NC2=O)C3=O)c1 (stereo partly drawn) [Compound D154, N-((1S)-1-(3-(6-(2-(2-(4-(2-(2,6-dioxopiperidin-3-yl)-1-oxoisoindolin-4-ylamino)-4-oxobutoxy)ethoxy)ethoxy)hexyloxy)phenyl)ethyl)-3-((4-methyl-5-(pyrimidin-4-yl)-4H-1,2,4-triazol-3-yl)methylamino)benzamide]",183,25.1,19.5,9.15,–,–,–,–,–,–,–,–,–,4.39,> 30,–,–
"C[C@@H](NC(=O)c1cccc(NCc2nnc(-c3ccncn3)n2C)c1)c1ccc(OCCCCCCOCCOCCOCCCC(=O)N2CCN(c3cc4c(cc3F)C(=O)N(C3CCC(=O)NC3=O)C4=O)CC2)cc1 (stereo partly drawn) [Compound D125, N-((1R)-1-(4-(6-(2-(2-(4-(4-(2-(2,6-dioxopiperidin-3-yl)-6-fluoro-1,3-dioxoisoindolin-5-yl)piperazin-1-yl)-4-oxobutoxy)ethoxy)ethoxy)hexyloxy)phenyl)ethyl)-3-((4-methyl-5-(pyrimidin-4-yl)-4H-1,2,4-triazol-3-yl)methylamino)benzamide]",1.13,71.9,82.5,76.4,–,–,–,–,–,–,–,–,–,0.11,26.6,–,–
"C[C@@H](NC(=O)c1cccc(NCc2nnc(-c3ccncn3)n2C)c1)c1cccc(OCCCCCCOCCOCCOCCCC(=O)N2CCN(c3ccc4c(c3)CN(C3CCC(=O)NC3=O)C4=O)CC2)c1 (stereo partly drawn) [Compound D179, N-((1R)-1-(3-((6-(2-(2-(4-(4-(2-(2,6-dioxopiperidin-3-yl)-1-oxoisoindolin-5-yl)piperazin-1-yl)-4-oxobutoxy)ethoxy)ethoxy)hexyl)oxy)phenyl)ethyl)-3-(((4-methyl-5-(pyrimidin-4-yl)-4H-1,2,4-triazol-3-yl)methyl)amino)benzamide]",6.36,58,82,88,–,–,–,–,–,–,–,–,–,0.14,> 30,–,–
